Results: ChEMBL document CHEMBL3046192, “Development of new fungicides against Magnaporthe grisea: synthesis and biological activity of pyrazolo[3,4-d][1,3]thiazine, pyrazolo[1,5-c][1,3,5]thiadiazine, and pyrazolo[3,4-d]pyrimidine derivatives” (J Agric Food Chem, 2002)
Activity calls are given as the source filed them. The calls are words filed in the database; no cut-off is given here.

How the values were obtained:
Pyricularia grisea [1] = test: microbe, parasite or virus in culture; assay type: functional; details: ATCC 64413, 120 h
Pyricularia grisea [2] = test: microbe, parasite or virus in culture; assay type: functional; details: ATCC 64413, 120 h; remark: listed apart in the source
Pyricularia grisea [3] = test: microbe, parasite or virus in culture; assay type: functional; details: ATCC 64413, 120 h; remark: listed apart in the source
Pyricularia grisea [4] = test: microbe, parasite or virus in culture; assay type: functional; details: ATCC 64413, 120 h; remark: listed apart in the source
Pyricularia grisea [5] = test: Antifungal activity against Magnaporthe grisea ATCC 64413 assessed as depigmentation of mycelium at 200 ug/ml; assay type: functional, organism-based
Pyricularia grisea [6] = test: Antifungal activity against Magnaporthe grisea ATCC 64413 infected rice plant assessed as growth inhibition at 1 to 10 ug/ml after 5 days; assay type: functional, organism-based
Oryza sativa [7] = test: Toxicity in Oryza sativa (rice) assessed as seedling growth at 1 to 10 ug/ml after 10 days; assay type: organism-based; details: in vivo, 240 h
Oryza sativa [8] = test: Toxicity in Oryza sativa (rice) assessed as cell culture growth at 1 to 10 ug/ml after 10 days; assay type: organism-based; details: 240 h
Oryza sativa [9] = test: Toxicity in Oryza sativa (rice) assessed as seedling growth at >10 ug/ml after 10 days; assay type: organism-based; details: in vivo, 240 h

| Structure (SMILES) | inhibition at 10 µg/mL (Pyricularia grisea [1]) | inhibition at 50 µg/mL (Pyricularia grisea [2]) | inhibition at 100 µg/mL (Pyricularia grisea [3]) | inhibition at 200 µg/mL (Pyricularia grisea [4]) | Activity (Pyricularia grisea [5]) | Activity (Pyricularia grisea [6]) | Activity (Oryza sativa [7]) | Activity (Oryza sativa [8]) | Activity (Oryza sativa [9]) |
| --- | --- | --- | --- | --- | --- | --- | --- | --- | --- |
| Cc1n[nH]c2nc(Cc3ccccc3)sc(=S)c12 | 73% | 75% | 76% | 77% | Active | – | – | – | – |
| Cc1n[nH]c2nc(-c3ccccc3)sc(=O)c12 | 16% | 24% | 28% | 30% | – | – | – | – | – |
| Cc1nn(-c2cccc([N+](=O)[O-])c2)c2nc(C(F)(F)F)[nH]c(=S)c12 | 32% | 61% | 78% | 95.9% | – | – | – | – | – |
| Cc1nn(-c2cccc([N+](=O)[O-])c2)c2nc(C(F)(F)F)sc(=S)c12 | 71.2% | 89.1% | 91.7% | 100% | – | – | – | – | – |
| Cc1cccc2sc3nncn3c12 [TRICYCLAZOLE] | 0% | 23.5% | 61.5% | 94% | – | – | – | – | – |
| Cc1cc2nc(-c3ccc(Br)cc3)sc(=O)n2n1 | 47% | 47% | 58% | 74% | – | – | – | – | – |
| Cc1cc2nc(-c3ccc(Cl)cc3)sc(=O)n2n1 | 17% | 62% | 66% | 66% | – | – | – | – | – |
| Cc1nn(-c2ccc(Cl)c(Cl)c2)c2nc(C(F)(F)F)[nH]c(=S)c12 | 52% | 91% | 100% | 100% | – | – | – | – | – |
| Cc1nn(-c2ccccc2)c2nc(C(F)(F)F)[nH]c(=S)c12 | 23% | 37% | 55% | 58% | – | – | – | – | – |
| Cc1nn(C(C)(C)C)c2nc(-c3ccccc3)sc(=S)c12 | 14% | 16% | 16% | 17% | – | – | – | – | – |
| Cc1cc2nc(-c3ccccc3)sc(=O)n2n1 | 92.4% | 100% | 100% | 100% | – | Active | Non-toxic | Non-toxic | Toxic |
| Cc1nn(C(C)(C)C)c2nc(C(F)(F)F)[nH]c(=S)c12 | 25% | 31% | 35% | 44% | – | – | – | – | – |
| Cc1nn(-c2ccccc2)c2nc(C(F)(F)F)sc(=S)c12 | – | – | 29.6% | 43.8% | – | – | – | – | – |
| O=c1sc(-c2ccccc2)nc2ccnn12 | 67% | 70.2% | 73.1% | 75.1% | – | – | – | – | – |
| Cc1n[nH]c2nc(-c3ccccc3)sc(=S)c12 | 14% | 15% | 17% | 21% | – | – | – | – | – |
| Cc1cc2nc(C(F)(F)F)sc(=O)n2n1 | 64.5% | 97.9% | 99.5% | 100% | – | – | – | – | – |
| O=c1sc(-c2ccccc2)nc2cc(-c3ccccc3)nn12 | 15% | 15% | 15% | 15% | – | – | – | – | – |
| Cc1nn(C(C)(C)C)c2nc(-c3ccccc3)sc(=O)c12 | 14% | 14% | 16% | 19% | – | – | – | – | – |
| Cc1cc2nc(C(F)(F)F)sc(=S)n2n1 | 48.4% | 79.6% | 79.7% | 93.2% | – | – | – | – | – |
| Cc1n[nH]c2nc(Cc3ccccc3)sc(=O)c12 | 30% | 57% | 77% | 80% | – | – | – | – | – |
| Cc1nn(-c2ccc(Cl)c(Cl)c2)c2nc(C(F)(F)F)sc(=S)c12 | 57.7% | 83.1% | 90.5% | 100% | – | – | – | – | – |
| Cc1nn(-c2cccc([N+](=O)[O-])c2)c2nc(C(F)(F)F)sc(=O)c12 | 21.9% | 39.6% | 54.4% | 81.1% | – | – | – | – | – |
| Cc1nn(C(C)(C)C)c2nc(C(F)(F)F)sc(=S)c12 | – | – | 42.7% | 58.3% | – | – | – | – | – |
